Data set [1] deals with T1, steroid 17α-hydroxylase and/or steroid C17-20 lyase (Rattus norvegicus, UniProt P11715).
T1 construct: the testis of rats (SD, male) was homogenized and centrifuged to obtain microsome; from tissue; host or cells: rat (SD, male) testis microsomes
T1 sequence (P11715 1-507): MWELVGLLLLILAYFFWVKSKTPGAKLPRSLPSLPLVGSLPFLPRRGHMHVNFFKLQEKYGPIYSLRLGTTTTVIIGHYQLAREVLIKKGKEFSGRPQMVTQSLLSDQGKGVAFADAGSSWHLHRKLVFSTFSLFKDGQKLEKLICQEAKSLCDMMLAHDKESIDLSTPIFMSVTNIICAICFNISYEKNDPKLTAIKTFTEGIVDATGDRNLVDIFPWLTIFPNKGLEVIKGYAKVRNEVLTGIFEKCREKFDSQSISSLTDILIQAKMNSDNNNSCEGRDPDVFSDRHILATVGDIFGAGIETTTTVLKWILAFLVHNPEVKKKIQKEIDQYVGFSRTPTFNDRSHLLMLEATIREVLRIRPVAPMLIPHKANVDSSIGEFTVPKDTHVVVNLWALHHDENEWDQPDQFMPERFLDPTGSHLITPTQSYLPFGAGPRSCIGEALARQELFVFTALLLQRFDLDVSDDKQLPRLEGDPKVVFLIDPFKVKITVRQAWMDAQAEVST
As to the kind of experiment: Measurement of steroid 17α-hydroxylase and/or steroid C17-20 lyase inhibitory activity (rat testis microsome, HPLC). The data set is classed as biochemical. The following applies: Enzyme source: rat testis microsome; test compound 300 nM; substrate 25 μM 17α-hydroxyprogesterone; NADPH 500 μM; 20 minutes at 37° C. How it is done:
An experiment was carried out according to the method of T. Sergejew and R. W. Hartmann (J. Enzyme Inhibition, 8, 113(1994)). That is, the testis of rats (SD, male) was homogenized and centrifuged to obtain microsome. […] After the addition of 100 μl of microsome protein solution, the protein contentration was adjusted to 0.1 mg/ml by 50 mM phosphate buffer solution (pH 7.4), 140 μl of 125 nmol NADPH solution, and 10 μl of 6.25 nmol 17α-hydroxyprogesterone, the mixture was incubated for 20 minutes at 37° C. 50 μl of 1N hydrochloric acid and 1000 μl of ethyl acetate were sequentially added to the mixture. The mixture was shaken and centrifuged. The ethyl acetate layer was washed with 250 μl of 50 mM phosphate buffer solution (pH 7.4) and 50 μl of 1N hydrochloric acid, centrifuged, and concentrated. The concentrate was dissolved in 100 μl of acetonitrile. 10 μl of this solution was charged to high performance liquid chromatography. The amounts of the substrate and the product (androstenedione and testosterone) were measured to calculate the enzyme activity. In this experiment, a sample without the test compound was provided as a control group. Steroid 17α-hydroxylase and/or steroid C17-20-lyase inhibitory activity (%) was calculated by the following equation (1) using the amounts of the substrate and the product obtained.

Counter-ions that a name gives are not always drawn.

What is called inhibition is the percentage by which the read-out fell short of the control. A higher inhibition goes with a strong effect. By melting point is commonly meant the temperature, or range, at which the solid turns liquid. Regarding `COc1ccc2c(-c3ccccn3)csc2c1.Cl` [Example 3, 2-[6-methoxybenzo[b]thiophen-3-yl]pyridine hydrochloride], the melting point was 205.5 to 207 °C (dec.). The same molecule had an inhibition at 0.3 µM in data set [1] of 9%.

For the molecule `Oc1cccc(-c2ccc3c(-c4cccnc4)csc3c2)c1` [Example 17, 3-[3-(3-pyridyl)benzo[b]thiophen-6-yl]-phenol], the melting point was in the range of 188.5 to 189.5 °C. Further, testing at 0.3 µM in data set [1] gave an inhibition of 100%.

In turn, `c1cncc(-c2ccc3c(-c4cccnc4)csc3c2)c1` [Example 20, 3-[6-(3-pyridyl)benzo[b]thiophen-3-yl]pyridine] came in with a melting point of 131.5 to 133 °C. The inhibition at 0.3 µM in data set [1] is 100%.

On to `Oc1ccc2c(-c3ccncc3)csc2c1` [Example 6, 3-(4-pyridyl)benzo[b]thiophen-6-ol], for which the melting point was 246 to 250 °C. This molecule also yielded an inhibition at 0.3 µM in data set [1] of 3%.

`CC(C)Nc1ccc2c(-c3cccnc3)csc2c1` [Example 54, isopropyl[3-(3-pyridyl)benzo[b]thiophen-6-yl]amine] returned an inhibition at 0.3 µM in data set [1] of 98%.

Regarding `COc1cccc(Oc2ccc3c(-c4cccnc4)csc3c2)c1` [Example 26, 3-[6-(3-methoxyphenoxy)benzo[b]thiophen-3-yl]pyridine hydrochloride], in data set [1], the inhibition at 0.3 µM was determined as 1%.

Molecule `Oc1ccc(-c2ccc3c(-c4cccnc4)csc3c2)cc1O` [Example 22, 4-[3-(3-pyridyl)benzo[b]thiophen-6-yl]benzene-1,2-diol] showed an inhibition at 0.3 µM in data set [1] of 73%.

For the molecule `CCCCCCOc1ccc2c(-c3cccnc3)csc2c1` [Example 35, 3-(6-hexyloxybenzo[b]thiophen-3-yl)pyridine hydrochloride], in data set [1], the inhibition at 0.3 µM stood at 61%.

In data set [1], `COc1ccc(-c2ccc3c(-c4ccncc4)csc3c2)cc1` [Example 7, 4-[6-(4-methoxyphenyl)benzo[b]thiophen-3-yl]pyridine] showed an inhibition at 0.3 µM of 60%.

`CC(C)Oc1cccc(-c2ccc3c(-c4cccnc4)csc3c2)c1` [Example 51, 3-[6-(3-isopropyloxyphenyl)benzo[b]thiophen-3-yl]pyridine hydrochloride] showed an inhibition at 0.3 µM in data set [1] of 37%.

Consider `CCOc1ccc2c(-c3cccnc3)csc2c1` [Example 43, 3-(6-ethyloxybenzo[b]thiophen-3-yl)pyridine hydrochloride], for which, in data set [1], the inhibition at 0.3 µM was determined as 97%.

These data come from patent publication US20030130340A1, “Novel benzothiophene derivatives” (Daiichi Pharmaceutical Co. Ltd., priority 2000, published 2003).
